PubChem BioAssay (NCI)
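Where inhibition never reached the appropriate level, the endpoint shown equals the highest concentration tested. Otherwise, values were interpolated linearly from a five-concentration, 48-hour dose response in 96-well plates. GI50 is the concentration that inhibits growth by half. The concentration for full growth arrest is given as TGI.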

Key:
Experiment in all cases: inhibition of tumour cell growth, NCI panel, 48 h
HCT-116 colon = system: HCT-116 colon
M14 melanoma = system: M14 melanoma
SNB-19 CNS = system: SNB-19 CNS
HT29 colon = system: HT29 colon
SK-MEL-2 melanoma = system: SK-MEL-2 melanoma
A549 NSCLC = system: A549 NSCLC
BT-549 breast = system: BT-549 breast
HL-60(TB) leukemia = system: HL-60(TB) leukemia
HOP-92 NSCLC = system: HOP-92 NSCLC
ACHN renal = system: ACHN renal
SW-620 colon = system: SW-620 colon
UACC-62 melanoma = system: UACC-62 melanoma
U251 CNS = system: U251 CNS
CCRF-CEM leukemia = system: CCRF-CEM leukemia
MDA-MB-231 breast = system: MDA-MB-231 breast
PC-3 prostate = system: PC-3 prostate
DU-145 prostate = system: DU-145 prostate
KM12 colon = system: KM12 colon
MOLT-4 leukemia = system: MOLT-4 leukemia
SK-MEL-28 melanoma = system: SK-MEL-28 melanoma
786-0 renal = system: 786-0 renal
OVCAR-8 ovarian = system: OVCAR-8 ovarian
SF-268 CNS = system: SF-268 CNS
NCI/ADR-RES ovarian = system: NCI/ADR-RES ovarian
UACC-257 melanoma = system: UACC-257 melanoma
UO-31 renal = system: UO-31 renal
SR leukemia = system: SR leukemia
OVCAR-5 ovarian = system: OVCAR-5 ovarian
SNB-75 CNS = system: SNB-75 CNS
NCI-H23 lung = system: NCI-H23 lung
TK-10 renal = system: TK-10 renal
HS 578T breast = system: HS 578T breast
MCF7 breast = system: MCF7 breast
HCT-15 colon = system: HCT-15 colon
K-562 leukemia = system: K-562 leukemia
RXF 393 renal = system: RXF 393 renal
A498 renal = system: A498 renal
NCI-H226 lung = system: NCI-H226 lung
HOP-62 NSCLC = system: HOP-62 NSCLC
SF-539 CNS = system: SF-539 CNS
LOX IMVI melanoma = system: LOX IMVI melanoma
SN12C renal = system: SN12C renal
RPMI-8226 leukemia = system: RPMI-8226 leukemia
MDA-MB-435 = system: MDA-MB-435
OVCAR-4 ovarian = system: OVCAR-4 ovarian
MALME-3M melanoma = system: MALME-3M melanoma
NCI-H522 lung = system: NCI-H522 lung
SK-OV-3 ovarian = system: SK-OV-3 ovarian
EKVX NSCLC = system: EKVX NSCLC
NCI-H460 lung = system: NCI-H460 lung
SF-295 CNS = system: SF-295 CNS
SK-MEL-5 melanoma = system: SK-MEL-5 melanoma
CAKI-1 renal = system: CAKI-1 renal
HCC-2998 colon = system: HCC-2998 colon
IGROV1 ovarian = system: IGROV1 ovarian

With Cn1cc(-c2ccc(-c3cn(C)c4ccc(Cl)cc34)[nH]2)c2cc(Cl)ccc21 the GI50 (HCT-116 colon) was 1990 nM, the TGI (HCT-116 colon) was 5.62 µM and the GI50 (M14 melanoma) was 1620 nM. It also gave a TGI (M14 melanoma) of 4.19 µM, a GI50 (SNB-19 CNS) of 1390 nM and a TGI (SNB-19 CNS) of 4.06 µM. For the same compound, the GI50 (HT29 colon) was 3920 nM, the TGI (HT29 colon) was 16 µM and the GI50 (SK-MEL-2 melanoma) was 1990 nM. It also gave a TGI (SK-MEL-2 melanoma) of 4.91 µM, a GI50 (A549 NSCLC) of 1790 nM and a TGI (A549 NSCLC) of 4.19 µM. It also gave a GI50 (BT-549 breast) of 0.419 µM, a TGI (BT-549 breast) of 1.71 µM and a GI50 (HL-60(TB) leukemia) of 438 nM. The TGI (HL-60(TB) leukemia) was 2.62 µM, the GI50 (HOP-92 NSCLC) was 1150 nM and the TGI (HOP-92 NSCLC) was 3.28 µM. The GI50 (ACHN renal) was 1080 nM, the TGI (ACHN renal) was 2280 nM and the GI50 (SW-620 colon) was 647 nM. For the same compound, the TGI (SW-620 colon) was 3.14 µM, the GI50 (UACC-62 melanoma) was 946 nM and the TGI (UACC-62 melanoma) was 2390 nM. It also gave a GI50 (U251 CNS) of 398 nM, a TGI (U251 CNS) of 1290 nM and a GI50 (CCRF-CEM leukemia) of 373 nM. The TGI (CCRF-CEM leukemia) was 1.7 µM, the GI50 (MDA-MB-231 breast) was 442 nM and the TGI (MDA-MB-231 breast) was 1980 nM. For the same compound, the GI50 (PC-3 prostate) was 434 nM, the TGI (PC-3 prostate) was 1720 nM and the GI50 (DU-145 prostate) was 3.57 µM. It also gave a TGI (DU-145 prostate) of 15.3 µM, a GI50 (KM12 colon) of 1200 nM and a TGI (KM12 colon) of 3.77 µM. For the same compound, the GI50 (MOLT-4 leukemia) was 2.85 µM, the TGI (MOLT-4 leukemia) was 11 µM and the GI50 (SK-MEL-28 melanoma) was 1820 nM. It also gave a TGI (SK-MEL-28 melanoma) of 3.95 µM, a GI50 (786-0 renal) of 5.31 µM and a TGI (786-0 renal) of 29.5 µM. For the same compound, the GI50 (OVCAR-8 ovarian) was 1440 nM, the TGI (OVCAR-8 ovarian) was 5.58 µM and the GI50 (SF-268 CNS) was 1380 nM. For the same compound, the TGI (SF-268 CNS) was 4.09 µM, the GI50 (NCI/ADR-RES ovarian) was 1840 nM and the TGI (NCI/ADR-RES ovarian) was > 100 µM. It also gave a GI50 (UACC-257 melanoma) of 2250 nM, a TGI (UACC-257 melanoma) of 4.49 µM and a GI50 (UO-31 renal) of 208 nM. It also gave a TGI (UO-31 renal) of 503 nM, a GI50 (SR leukemia) of 617 nM and a TGI (SR leukemia) of 3.19 µM. It also gave a GI50 (OVCAR-5 ovarian) of 663 nM, a TGI (OVCAR-5 ovarian) of 2.82 µM and a GI50 (SNB-75 CNS) of 1750 nM. The TGI (SNB-75 CNS) was 4.38 µM, the GI50 (NCI-H23 lung) was 3230 nM and the TGI (NCI-H23 lung) was 24.7 µM. The GI50 (TK-10 renal) was 3140 nM, the TGI (TK-10 renal) was 9.8 µM and the GI50 (HS 578T breast) was 1140 nM. It also gave a TGI (HS 578T breast) of 5.37 µM, a GI50 (MCF7 breast) of 2850 nM and a TGI (MCF7 breast) of 15.4 µM. It also gave a GI50 (HCT-15 colon) of 1100 nM, a TGI (HCT-15 colon) of 2.5 µM and a GI50 (K-562 leukemia) of 377 nM. It also gave a TGI (K-562 leukemia) of 2030 nM, a GI50 (RXF 393 renal) of 882 nM and a TGI (RXF 393 renal) of 2310 nM. For the same compound, the GI50 (A498 renal) was 4170 nM, the TGI (A498 renal) was 19 µM and the GI50 (NCI-H226 lung) was 1930 nM. For the same compound, the TGI (NCI-H226 lung) was 4.25 µM, the GI50 (HOP-62 NSCLC) was 2250 nM and the TGI (HOP-62 NSCLC) was 7.76 µM. It also gave a GI50 (SF-539 CNS) of 1140 nM, a TGI (SF-539 CNS) of 3.45 µM and a GI50 (LOX IMVI melanoma) of 1220 nM. It also gave a TGI (LOX IMVI melanoma) of 2670 nM, a GI50 (SN12C renal) of 2390 nM and a TGI (SN12C renal) of 5.72 µM. The GI50 (RPMI-8226 leukemia) was 356 nM and the TGI (RPMI-8226 leukemia) was 1310 nM.
COc1ccc2nc3ccccc3c(NCc3ccc(Cl)cc3)c2c1 showed a GI50 (HCT-116 colon) of 1790 nM, a TGI (HCT-116 colon) of 4.14 µM and a GI50 (MDA-MB-435) of 1500 nM. It also gave a TGI (MDA-MB-435) of 3.06 µM, a GI50 (M14 melanoma) of 1810 nM and a TGI (M14 melanoma) of 3.47 µM. For the same compound, the GI50 (SNB-19 CNS) was 2260 nM, the TGI (SNB-19 CNS) was 6.35 µM and the GI50 (HT29 colon) was 2020 nM. The TGI (HT29 colon) was 7.08 µM, the GI50 (SK-MEL-2 melanoma) was 1930 nM and the TGI (SK-MEL-2 melanoma) was 3.7 µM. It also gave a GI50 (A549 NSCLC) of 2060 nM, a TGI (A549 NSCLC) of 4.89 µM and a GI50 (OVCAR-4 ovarian) of 2130 nM. The TGI (OVCAR-4 ovarian) was 6.35 µM, the GI50 (MALME-3M melanoma) was 1810 nM and the TGI (MALME-3M melanoma) was 3.39 µM. For the same compound, the GI50 (NCI-H522 lung) was 2020 nM, the TGI (NCI-H522 lung) was 5.08 µM and the GI50 (BT-549 breast) was 5.64 µM. It also gave a TGI (BT-549 breast) of 20.8 µM, a GI50 (HL-60(TB) leukemia) of 2290 nM and a TGI (HL-60(TB) leukemia) of 5.24 µM. For the same compound, the GI50 (HOP-92 NSCLC) was 1480 nM, the TGI (HOP-92 NSCLC) was 3.35 µM and the GI50 (SK-OV-3 ovarian) was 3.19 µM. It also gave a TGI (SK-OV-3 ovarian) of 9.8 µM, a GI50 (ACHN renal) of 1550 nM and a TGI (ACHN renal) of 2890 nM. For the same compound, the GI50 (SW-620 colon) was 1650 nM, the TGI (SW-620 colon) was 3.47 µM and the GI50 (UACC-62 melanoma) was 1660 nM. It also gave a TGI (UACC-62 melanoma) of 3210 nM, a GI50 (CCRF-CEM leukemia) of 2660 nM and a TGI (CCRF-CEM leukemia) of 9.48 µM. It also gave a GI50 (PC-3 prostate) of 1790 nM, a TGI (PC-3 prostate) of 4240 nM and a GI50 (EKVX NSCLC) of 2300 nM. It also gave a TGI (EKVX NSCLC) of 5.92 µM, a GI50 (DU-145 prostate) of 2.65 µM and a TGI (DU-145 prostate) of 7.33 µM. The GI50 (KM12 colon) was 3080 nM, the TGI (KM12 colon) was 11.3 µM and the GI50 (MOLT-4 leukemia) was 3.19 µM. It also gave a TGI (MOLT-4 leukemia) of 13.3 µM, a GI50 (SK-MEL-28 melanoma) of 1780 nM and a TGI (SK-MEL-28 melanoma) of 3.36 µM. For the same compound, the GI50 (786-0 renal) was 1.73 µM, the TGI (786-0 renal) was 3.2 µM and the GI50 (OVCAR-8 ovarian) was 2250 nM. For the same compound, the TGI (OVCAR-8 ovarian) was 5.91 µM, the GI50 (SF-268 CNS) was 1980 nM and the TGI (SF-268 CNS) was 4.61 µM. For the same compound, the GI50 (NCI-H460 lung) was 1880 nM, the TGI (NCI-H460 lung) was 3.69 µM and the GI50 (NCI/ADR-RES ovarian) was 1800 nM. For the same compound, the TGI (NCI/ADR-RES ovarian) was 3.97 µM, the GI50 (UACC-257 melanoma) was 2030 nM and the TGI (UACC-257 melanoma) was 4.57 µM. The GI50 (UO-31 renal) was 1340 nM, the TGI (UO-31 renal) was 2750 nM and the GI50 (OVCAR-5 ovarian) was 1910 nM. It also gave a TGI (OVCAR-5 ovarian) of 4.9 µM, a GI50 (SNB-75 CNS) of 1270 nM and a TGI (SNB-75 CNS) of 2.62 µM. For the same compound, the GI50 (SF-295 CNS) was 1500 nM, the TGI (SF-295 CNS) was 2930 nM and the GI50 (NCI-H23 lung) was 1860 nM. It also gave a TGI (NCI-H23 lung) of 4.52 µM, a GI50 (TK-10 renal) of 1960 nM and a TGI (TK-10 renal) of 3.84 µM. The GI50 (HCT-15 colon) was 1730 nM, the TGI (HCT-15 colon) was 3.88 µM and the GI50 (RXF 393 renal) was 1450 nM. The TGI (RXF 393 renal) was 3000 nM, the GI50 (A498 renal) was 1440 nM and the TGI (A498 renal) was 2.77 µM. For the same compound, the GI50 (SK-MEL-5 melanoma) was 1760 nM, the TGI (SK-MEL-5 melanoma) was 3.19 µM and the GI50 (NCI-H226 lung) was 2140 nM. It also gave a TGI (NCI-H226 lung) of 5.74 µM, a GI50 (HOP-62 NSCLC) of 1720 nM and a TGI (HOP-62 NSCLC) of 3.44 µM. The GI50 (CAKI-1 renal) was 1690 nM, the TGI (CAKI-1 renal) was 3.23 µM and the GI50 (SF-539 CNS) was 1710 nM. The TGI (SF-539 CNS) was 3.24 µM, the GI50 (HCC-2998 colon) was 1760 nM and the TGI (HCC-2998 colon) was 3.24 µM. The GI50 (IGROV1 ovarian) was 2400 nM, the TGI (IGROV1 ovarian) was 6.65 µM and the GI50 (SN12C renal) was 1730 nM. The TGI (SN12C renal) was 3.86 µM.
